Experimental data published in patent US20160205982A1, “LIFE ENHANCING BEVERAGES” (REOXCYN DISCOVERIES GROUP, INC., priority 2013, published 2016).

Experiments:
[1] = test system: NRF2; experiment: Western blot of NRF2 in nuclear extracts of HMVEC-L; assay type: cell-based, human; details: H2O2 30 min, positive control
Description: (§1) 8. A Western Blot analysis was done on extra-nuclear and intra-nuclear fractions, separated by differential centrifugation, of serum starved HMVEC-L cell cultures exposed to <1% ASEA compared with a positive hydrogen peroxide control to determine phosphorylation events (oxidant action) in the extra-nuclear fraction and NRF2 (antioxidant transcription) in the intra-nuclear fraction at 0, 30, 60, 90 and 120 min. intervals.
(§2) Experimental Methods for Western Blot Validation of NRF2 Nuclear Accumulation: HMVEC-L were treated with 1% ASEA, nuclear extracts were separated through centrifugal differentiation from the extra-nuclear cytosol at 30, 60 and 120 min and subjected to Western Blot analysis for NRF2. In the Western blot experiment the extra-nuclear fraction was probed for phosphorylated proteins using a combination of anti-phospho serine, threonine and tyrosine antibodies. Virtually all cellular processes are regulated by posttranslational modifications and protein phosphorylation is a prevalent mechanism. Observable changes in protein phosphorylation can lead to a mechanistic understanding of the cellular processes perturbed by ASEA and provide a defined endpoint to better define dose-dependent regulation of cell function by ASEA in vitro, as well as provide a potential candidate molecular marker that may be used to provide in vitro-in vivo correlates. […]

[2] = test system: phosphorylated proteins (extra-nuclear fraction); experiment: Western blot of protein phosphorylation in extra-nuclear fraction of HMVEC-L; assay type: cell-based, human; details: H2O2 treatment
Description: as §1, §2

Compound: OO [H2O2, Hydrogen peroxide]
- NRF2 levels in nuclear extracts [1]: did not increase
- phosphorylation of the protein detected in extra-nuclear fraction [2]: marked increase
